{"source": "patent US4840950A", "about": "“4-arylcarbonyl-1-[(4-morpholinyl)-lower-alkyl]-1H-indoles” (Sterling Drug Inc., priority 1987, dated 1989)", "key": {"[1]": {"system": "acetylcholine-induced abdominal constriction in mice", "assay": "acetylcholine-induced abdominal constriction test (Ach), antinociceptive activity", "assay_type": "in vivo", "conditions": "for ED50: Mus musculus, oral administration", "excerpt": "(§1) The test procedures used to determine the analgesic activity of the compounds have been described in detail in the prior art and are as follows: The acetylcholine-induced abdominal constriction test, which is a primary analgesic screening test designed to measure the ability of a test agent to suppress acetylcholine-induced abdominal constriction in mice, described by Collier et al., Brit. J. Pharmacol, Chemotherap. 32, 295 (1968) and the rotorod performance test, which is a test designed to measure neurotoxicity of a test compound, described by Dunham et al., J. Pharm. Sci. 46, 206-209 (1957).\n(§2) The 4-arylcarbonyl-1-[(4-morpholinyl)-lower-alkyl]-1H-indoles of the invention were tested in the acetylcholine-induced abdominal constriction test (Ach), which gives a measure of antinociceptive activity, and the rotorod assay (R.R.), which gives a measure of neurotoxicity and CNS impairment. The results, expressed in terms of the ED50 's obtained on oral administration in the acetylcholine test and as the ratio of the rotorod (R.R.):Ach ED50 's, are given in the following table: […]"}, "[2]": {"assay": "rotorod performance test (R.R.), neurotoxicity and CNS impairment, as ratio to Ach", "conditions": "mouse, in vivo; ratio of rotorod (R.R.):Ach ED50's; Ach ED50 on oral administration", "excerpt": "as §1, §2"}}}
{"smiles": "COc1ccc(C(=O)c2cccc3c2ccn3CCN2CCOCC2)cc1.Cl", "note": "[Ex. 1A, 4-(4-methoxybenzoyl)-1-[2-(4-morpholinyl)ethyl]-1H-indole hydrochloride]", "values": [{"measurement": "Ach (percent effect)", "setting": "[1]; 93%/100(s.c.): at 100 (dose unit not given), s.c.", "result": 93, "unit": "%"}, {"measurement": "ED50", "setting": "[1]", "result": 46, "unit": "mg/kg"}, {"measurement": "selectivity ratio", "setting": "[2]", "result": 3.1}]}
{"smiles": "COc1ccc(C(=O)c2cccc3c2ccn3CCCN2CCOCC2)cc1.Cl", "note": "[Ex. 1B, 4-(4-methoxybenzoyl)-1-[3-(4-morpholinyl)propyl]-1H-indole hydrochloride]", "values": [{"measurement": "ED50", "setting": "[1]", "result": 63, "unit": "mg/kg"}, {"measurement": "selectivity ratio", "setting": "[2]", "result": 2.8}]}
{"smiles": "O=C(c1cccc2ccccc12)c1cccc2c1ccn2CCN1CCOCC1", "note": "[Ex. 1C, 1-[2-(4-morpholinyl)ethyl]-4-(1-naphthylcarbonyl)-1H-indole p-toluenesulfonate hydrate 3:1]", "values": [{"measurement": "ED50", "setting": "[1]", "result": 16, "unit": "mg/kg"}]}
